# Measured values taken from patent US20020115642A1, “Beta-lactam antibiotics” (priority 2000, published 2002).
# Like-named read-outs stand apart in the source and are kept apart here.
# Tests used:
# E coli R(Tem1) = assay: Inhibition of bacterial growth (IC50, OD600); format: cell-based; conditions: for IC50 ratio N/R: N versus R (Tem1)
# Description: Compounds of the invention were tested for their ability to inhibit the growth of β-lactam sensitive and resistant bacteria by contacting samples of such cells with various dilutions of the compositions, incubating the cells at 37° C. in the presence of these compositions and then measuring the number of viable cells present in each sample.
# Two compounds of the invention were tested, Compound (9) and Compound (1l). Incubation of bacterial cells was performed for two time periods, 10 hours and 20 hours. Four E. coli strains were used for the test. These strains were all derived from the strain NovaBlue (NovaGen Inc., Madison, Wis.). E. coli N is a normal, β-lactam sensitive strain. E coli R(Tem1) is a β-lactam resistant strain with a β-lactamase gene on a plasmid. E. coli C(Tem4O-15) is a β-lactam resistant strain with a β-lactam inhibitor resistant β-lactamase gene, and E. coli C(Tem3 1-27) is β-lactam resistant strain with an alternative β-lactam inhibitor resistant β-lactamase gene.
# The various E. coli strains were each treated with dilutions of the compounds of the invention. […] The number of viable cells at each time point was determined by measuring the OD600 of each cell sample.
# After measuring the number of viable cells present, the IC50 for each sample was determined. […] In addition, both compounds were effective at inhibiting the growth of both antibiotic sensitive and resistant bacterial cells.
# [1] = tested on: UDP-glucuronosyltransferase; assay: Glucuronidation assay; format: in vitro ADME, human; conditions: 100 μM, 100 μg human liver microsome, 37° C., 1 hour, TLC
# Description: Assays were conducted as outlined in Example 15, using 100 μM Compound (9), triclosan or cephalothin incubated with 100 μg human liver microsome at 37° C. for 1 hour. The reactants were analyzed on TLC plate, and glucuronidated compounds were visualized by MolecularDynamics Storm 820.
# Glucuronidation assay was performed based on modified procedure from Bansal and Gessner (1980) Anal. Biochem. 109:321-329. Reactions were performed in 50 mM Tris buffer, pH 7.6, containing 10 mM MgCl2, ImM UDPGA, 0.04 μCi of ^14C-UDPGA, 0.1 mM substrate, and 100 μg human liver microsome. The final volume was 100 μL. Reactions were incubated at 37° C. for one hour and the reactants extracted with 200 μL of 100% ethanol. The protein was removed by centrifugation at 12,000×g for 5 minutes in an Eppendorf centrifuige. The supernatant was dried and resuspended in 30 μL of 100% methanol and spotted on a Whatman glass-backed linear k TLC plate. Chromatography was performed in a mixture of 1-butanol/acetone/acetic acid/water (35:35:10:20). The TLC plate was then dried and exposed to phosphor imager overnight, then monitored by imaging (MolecularDynamics Storm 820).
# S. epidermidis = assay: Susceptibility testing (MIC, modified NCCLS method); format: cell-based, Staphylococcus epidermidis; conditions: for MIC: Staphylococcus epidermidis
# Description: (§1) The NCCLS (National Committee for Clinical Laboratory Standards) method to determine MIC's of antimicrobial compounds was modified for high-throughput screening. All stocks of tested compounds were prepared in either water or in dimethylsulfoxide (DMSO), depending on the solubility. […] Briefly 20 2-fold serial dilutions of testing compounds from the highest concentration were made in a 384-well microtiter plate. Each well was inoculated with testing bacteria in broth to a final concentration of approximately 1-1.5×10^6 cells/ml. Bacterial growth was determined by the increase of optical density at 600 nm using a microplate reader (Tecan SpectraFluor Plus).
# E. faecium = assay: as above; format: cell-based, Enterococcus faecium; conditions: for MIC: Enterococcus faecium, read-out: GM* MIC (geometric mean)
# Description: as §1
# Staphylococcus aureus = assay: as above; format: cell-based; conditions: Staphylococcus aureus
# Description: as §1
# E. faecalis = assay: as above; format: cell-based, Enterococcus faecalis; conditions: for MIC: Enterococcus faecalis, read-out: GM* MIC (geometric mean)
# Description: as §1
# [2] = tested on: Vancomycin-resistant E. faecalis or E. faecium; assay: as above; format: cell-based, Enterococcus faecalis, Enterococcus faecium
# Description: as §1
# K. pneumoniae = assay: as above; format: cell-based, Klebsiella pneumoniae; conditions: Klebsiella pneumoniae; K. pneumoniae (5); read-out: GM* MIC (geometric mean)
# Description: as §1
# E. aerogenes = assay: as above; format: cell-based, Enterobacter aerogenes; conditions: E. aerogenes (5)
# Description: as §1
# S. pneumoniae = assay: as above; format: cell-based, Streptococcus pneumoniae; conditions: S. pneumoniae (3)
# Description: as §1
# E. cloacae = assay: as above; format: cell-based, Enterobacter cloacae; conditions: E. cloacae (1)
# Description: as §1
# E. coli N = assay: as above; format: cell-based, Escherichia coli; conditions: Escherichia coli; E. coli, BLA neg., drug alone; read-out: MIC
# Description: as §1
# E. coli/TEM-1 = assay: as above; format: cell-based, Escherichia coli; conditions: Escherichia coli
# Description: as §1
# [3] = tested on: O=C(Cc1cccs1)N[C@@H]1C(=O)N2C(C(=O)O)=C(/C=C/c3ccc([N+](=O)[O-])cc3[N+](=O)[O-])CS[C@H]12; assay: purified protein, by the assay type; conditions: other: progress curve analysis at 16 μM Compound (9) and […] TEM-1 β-lactamase, 37° C.
molecule,measurement,setting,value
"Oc1cc(Cl)ccc1Oc1ccc(Cl)cc1Cl [Triclosan, triclosan, reference compound]",IC50 ratio N/R,E coli R(Tem1); 10 hours,N/R = 1555x
same,IC50 ratio N/R,E coli R(Tem1); 20 hours,N/R = 2.5x
same,IC50,"E coli R(Tem1); Escherichia coli, 10 h, read-out: IC50 10 hours, Cell R (Tem1), 10 hours",0.166 nM
same,IC50,"E coli R(Tem1); read-out: IC50 10 hours, Cell R (Tem1), 10 hours",0.24 nM
same,glucuronidation by human liver microsome,[1],glucuronidated
"CN[C@H](CC(C)C)C(=O)N[C@H]1C(=O)N[C@@H](CC(N)=O)C(=O)N[C@H]2C(=O)N[C@H]3C(=O)N[C@H](C(=O)N[C@H](C(=O)O)c4cc(O)cc(O)c4-c4cc3ccc4O)[C@H](O)c3ccc(c(Cl)c3)Oc3cc2cc(c3O[C@@H]2O[C@H](CO)[C@@H](O)[C@H](O)[C@H]2O[C@H]2C[C@](C)(N)[C@H](O)[C@H](C)O2)Oc2ccc(cc2Cl)[C@H]1O [Vancomycin, vancomycin, reference compound]",MIC range,S. epidermidis; S. epidermidis (5),1 to 2 µg/mL
same,MIC,S. epidermidis; read-out: GM* MIC (geometric mean),1.74 µg/mL
same,MIC,S. epidermidis; read-out: MICs of heterogeneous vancomycin resistant strains,2 µg/mL
same,MIC,E. faecium,> 3.49 µg/mL
same,MIC,"Staphylococcus aureus; ATCC11632, ATCC 11632, methicillin-sensitive, β-lactamase Neg./Pos.",0.25 µg/mL
same,MIC,"Staphylococcus aureus; ATCC13301, ATCC 13301, methicillin-sensitive, β-lactamase Positive",0.25 µg/mL
same,MIC,"Staphylococcus aureus; ATCC14154, ATCC 14154, methicillin-sensitive, β-lactamase Positive",0.5 µg/mL
same,MIC,"Staphylococcus aureus; ATCC33591, ATCC 33591, methicillin-resistant, β-lactamase Positive",0.25 µg/mL
same,MIC,"Staphylococcus aureus; ATCC33592, ATCC 33592, methicillin-sensitive, β-lactamase Positive",0.5 µg/mL
same,MIC,"Staphylococcus aureus; ATCC33593, ATCC 33593, methicillin-resistant, β-lactamase Positive",0.5 µg/mL
same,MIC,"Staphylococcus aureus; ATCC33594, ATCC 33594, methicillin-sensitive, β-lactamase Positive",0.5 µg/mL
same,MIC,"Staphylococcus aureus; ATCC43300, ATCC 43300, methicillin-sensitive, β-lactamase Neg./Pos.",0.5 µg/mL
same,MIC,"Staphylococcus aureus; ATCC700260, ATCC 700260, methicillin-sensitive, β-lactamase Positive",1 µg/mL
same,MIC,"Staphylococcus aureus; ATCC700698, ATCC 700698, methicillin-resistant, β-lactamase Negative",2 µg/mL
same,MIC,"Staphylococcus aureus; ATCC700699, ATCC 700699, methicillin-resistant, β-lactamase Negative",4 µg/mL
same,MIC,"Staphylococcus aureus; ATCC700787, ATCC 700787, methicillin-resistant, β-lactamase Positive",8 µg/mL
same,MIC,"Staphylococcus aureus; ATCC700788, ATCC 700788, methicillin-resistant, β-lactamase Positive",2 µg/mL
same,MIC,"Staphylococcus aureus; ATCC700789, ATCC 700789, methicillin-resistant, β-lactamase Positive",2 µg/mL
same,MIC,"Staphylococcus aureus; MRSA, read-out: Geometric mean of MIC, MRSA tested (7)",1.64 µg/mL
same,MIC,"Staphylococcus aureus; MSSA, read-out: Geometric mean of MIC, MSSA tested (7)",0.36 µg/mL
same,MIC,"Staphylococcus aureus; read-out: Geometric mean of MIC, S. aureus (14)",0.86 µg/mL
same,MIC,"Staphylococcus aureus; read-out: Geometric mean of MIC, S. aureus β-lactamase negative (2)",2.83 µg/mL
same,MIC,"Staphylococcus aureus; read-out: Geometric mean of MIC, S. aureus β-lactamase positive (12)",0.94 µg/mL
same,MIC,E. faecalis,> 6.41 µg/mL
same,MIC,"[2]; Enterococcus, VRE, read-out: GM* MIC (geometric mean)",> 47.4 µg/mL
same,GM* MIC (geometric mean),[2]; VRE (5),>47.4 µg/mL
"CC(=O)OCC1=C(C(=O)O)N2C(=O)[C@@H](NC(=O)Cc3cccs3)[C@H]2SC1 [Cephalothin, cephalothin, reference compound]",MIC range,S. epidermidis; S. epidermidis (5),0.2 to 25 µg/mL
same,MIC,"S. epidermidis; S. epidermidis (5), read-out: GM* MIC (geometric mean)",1.81 µg/mL
same,MIC,K. pneumoniae,> 66 µg/mL
same,MIC range,E. faecium; E. faecium (6),>100 µg/mL
same,MIC,E. faecium; E. faecium (6),> 100 µg/mL
same,MIC,"Staphylococcus aureus; ATCC11632, ATCC 11632, methicillin-sensitive, β-lactamase Neg./Pos., read-out: MIC",0.2 µg/mL
same,MIC,"Staphylococcus aureus; ATCC13301, ATCC 13301, methicillin-sensitive, β-lactamase Positive, read-out: MIC",6.25 µg/mL
same,MIC,"Staphylococcus aureus; ATCC14154, ATCC 14154, methicillin-sensitive, β-lactamase Positive, read-out: MIC",0.39 µg/mL
same,MIC,"Staphylococcus aureus; ATCC33591, ATCC 33591, methicillin-resistant, β-lactamase Positive, read-out: MIC",0.56 µg/mL
same,MIC,"Staphylococcus aureus; ATCC33592, ATCC 33592, methicillin-sensitive, β-lactamase Positive, read-out: MIC",1.56 µg/mL
same,MIC,"Staphylococcus aureus; ATCC33593, ATCC 33593, methicillin-resistant, β-lactamase Positive, read-out: MIC",0.78 µg/mL
same,MIC,"Staphylococcus aureus; ATCC33594, ATCC 33594, methicillin-sensitive, β-lactamase Positive, read-out: MIC",0.2 µg/mL
same,MIC,"Staphylococcus aureus; ATCC43300, ATCC 43300, methicillin-sensitive, β-lactamase Neg./Pos., read-out: MIC",0.39 µg/mL
same,MIC,"Staphylococcus aureus; ATCC700260, ATCC 700260, methicillin-sensitive, β-lactamase Positive, read-out: MIC",0.39 µg/mL
same,MIC,"Staphylococcus aureus; ATCC700698, ATCC 700698, methicillin-resistant, β-lactamase Negative, read-out: MIC",100 µg/mL
same,MIC,"Staphylococcus aureus; ATCC700699, ATCC 700699, methicillin-resistant, β-lactamase Negative, read-out: MIC",100 µg/mL
same,MIC,"Staphylococcus aureus; ATCC700787, ATCC 700787, methicillin-resistant, β-lactamase Positive, read-out: MIC",50 µg/mL
same,MIC,"Staphylococcus aureus; ATCC700788, ATCC 700788, methicillin-resistant, β-lactamase Positive, read-out: MIC",3.13 µg/mL
same,MIC,"Staphylococcus aureus; ATCC700789, ATCC 700789, methicillin-resistant, β-lactamase Positive, read-out: MIC",6.25 µg/mL
same,MIC,"Staphylococcus aureus; MRSA, MRSA tested (7), read-out: Geometric mean of MIC",10.2 µg/mL
same,MIC,"Staphylococcus aureus; MSSA, MSSA tested (7), read-out: Geometric mean of MIC",0.58 µg/mL
same,MIC,"Staphylococcus aureus; S. aureus (14), read-out: Geometric mean of MIC",2.45 µg/mL
same,MIC,"Staphylococcus aureus; S. aureus β-lactamase negative (2), read-out: Geometric mean of MIC",100 µg/mL
same,MIC,"Staphylococcus aureus; S. aureus β-lactamase positive (12), read-out: Geometric mean of MIC",1.32 µg/mL
same,MIC range,E. faecalis; E. faecalis (7),25 to 100 µg/mL
same,MIC,E. faecalis; E. faecalis (7),61 µg/mL
same,MIC range,E. aerogenes,>100 µg/mL
same,MIC,"E. aerogenes; Klebsiella aerogenes, read-out: GM* MIC (geometric mean)",> 100 µg/mL
same,MIC range,S. pneumoniae,0.06 to 2 µg/mL
same,MIC,"S. pneumoniae; Streptococcus pneumoniae, read-out: GM* MIC (geometric mean)",0.247 µg/mL
same,MIC range,E. cloacae,>100 µg/mL
same,MIC,"E. cloacae; Enterobacter cloacae, read-out: GM* MIC (geometric mean)",> 100 µg/mL
same,MIC,E. coli N,16 µg/mL
same,MIC,E. coli/TEM-1,> 32 µg/mL
TEM-1 β-lactamase (Escherichia coli),Km,[3],15 µM
same,kcat,[3],3.3 s⁻¹
same,kcat/Km,[3],220000 M⁻¹ s⁻¹
